{
  "source": "paper PMC7961786",
  "about": "“Magic Peptide: Unique Properties of the LRR11 Peptide in the Activation of Leukotriene Synthesis in Human Neutrophils” (International Journal of Molecular Sciences, 2021)",
  "key": {"[1]": {"system": "PMNLs, 5-LOX product formation", "test": "5-LOX product formation in PMNLs stimulated by calcium ionophore A23187", "format": "cell-based, human", "settings": "1 µM A23187 alone for 10 min, after 30 min at 37 °C without inhibitor; mean ± SEM, three independent experiments", "experimental": "(§1) Human neutrophils were isolated from freshly taken citrate-anticoagulated peripheral blood from healthy individuals using standard methods. Leukocyte-rich plasma was prepared by sedimentation of erythrocytes with 3% dextran T-500 at room temperature. For purification of granulocytes, centrifugation through Ficoll-Paque (density 1.077 g/mL) was used, followed by hypotonic lysis of the remaining erythrocytes. PMNLs were washed twice in PBS, resuspended at 10^7 cells/mL (96–97% purity, 98–99% viability) in Dulbecco’s PBS containing 1 mg/mL glucose (no CaCl2) and stored at room temperature. All methods were performed in accordance with the relevant instructions and regulations of the Ministry of Health of the Russian Federation and local legislation.\n(§2) To purify the water/methanol extracts, solid-phase extraction was used on Sep-Pak C18 cartridges (500 mg; Macherey-Nagel, Dueren, Germany), which were conditioned first with methanol, and then with water. Major 5-LOX metabolites were identified by comparing retention times with those of known compounds, as previously described."}, "[2]": {"system": "5′-biotinylated C-CpG", "test": "TSM acoustic biosensor, peptide binding to immobilized C-CpG", "settings": "up to 100 nM URP, immobilized C-CpG; Figure 4A", "description": "(§3) To characterize the interaction of the studied synthetic ODNs with the LRR11 peptide, we applied the thickness shear mode (TSM) acoustic biosensor method, which is based on the investigation of ultrasonic waves in piezoelectric materials such as AT-cut quartz. This approach involved immobilizing a 5′-biotinylated ODN on the surface of TSM transducer covered by NeutrAvidin and then adding the LRR11 peptide. An unrelated peptide (URP) with a random primary structure ([…]) was used as a negative control. The measurement procedure was divided into several steps, in which each immobilization stage was followed by washing with an appropriate buffer solution; when peptide solutions at different concentrations (from 1 to 100 nM) were added to the surface-modified TSM transducer, a wash with Hanks buffer was used before increasing the peptide concentration.\n(§4) Based on Langmuir isotherm Equation (1), (1) Δfcc=Δfsmaxc/KD+c where Δfs(c) is the frequency change at a certain peptide concentration under equilibrium conditions, (Δfs)max is the maximum frequency change, c is the peptide concentration, and KD is the equilibrium constant of dissociation, we estimated the (Δfs)max and KD values for binding of the LRR11 peptide to C-CpG and B-CpG (Table 3).\nUsing Sauerbrey’s Equation (2), (2) Δf=−2f02Δm/Aμqρq where f0 is the fundamental resonance frequency (in our case 8 MHz), Δm is the change in mass (in grams) of the adsorbed layer on the crystal surface, A is the effective crystal area (in our case 0.2 cm^2), μq = 2.947 × 10^11 g × cm^−1s^−2 is the shear modulus of elasticity, and ρq = 2.648 g × cm^−3 is the crystal density, surface concentrations of NeutrAvidin, ODN and LRR11 peptide were estimated based on changes of resonance frequency (Figure 4). According to Equation (2), the surface density of molecules, σ (in molecules/cm^2), can be calculated as σ = ΔmNA/(A × Mw), where NA is Avogadro’s number (=6.023 × 10^23 mol^−1), and Mw represents the molecular weight of the corresponding compound (NeutrAvidin: 65 kDa, 5′-biotinylated C-CpG: 7115.4 Da, and LRR11: 3421 Da). Based on this approach, we obtained the following surface concentration values: 1.94 × 10^13 cm^−2 for NeutrAvidin, 3.37 × 10^13 cm^−2 for C-CpG and 2.4 × 10^13 cm^−2 for LRR11. The NeutrAvidin has four binding sites, two of which are available for biotinylated ODN binding. This is due to the fact that the other two sites are inaccessible due to NeutrAvidin chemisorption on the TSM surface. Thus, the number of available binding sites for the ODN is 3.88 × 10^13 cm^−2. […] Therefore, the surface of the TSM transducer is practically completely saturated by C-CpG. Estimation of the surface concentration of LRR11 evidences that at 50 nM concentration of this peptide, it occupies almost 70.6% of the ODN molecules. […]"}, "[3]": {"system": "5′-biotinylated B-CpG", "test": "TSM acoustic biosensor, peptide binding to immobilized B-CpG", "settings": "URP, immobilized B-CpG", "description": "as §3, §4\nEight MHz AT-cut piezoelectric quartz crystal transducer was obtained from CH Instruments, Austin, TX, USA. The transducer was covered on both sides with thin layers of gold that served as electrodes (working area 0.2 cm^2). Prior ODNs immobilization, the crystal was carefully cleaned with basic Piranha solution (29% NH3, 30% H2O and H2O2 with volumetric 1:5:1 ratio, respectively) for 25 min. After the thorough cleaning, the crystal was positioned between two silicon O-rings in a flow-through cell. The analyte was injected into the cell using a Genie Plus syringe pump (Kent Scientific, Torrington, CT, USA) at a flow rate of 50 μL/min. Each solution was applied until the resonance frequency stabilized. The surface of the transducer was first washed with deionized water, and then 125 μg/mL NeutrAvidin (WWR International GmbH, Vienna, Austria) solution in water was applied. Approximately 15 min were required to stabilize the signal at a constant NeutrAvidin flow rate. This was followed by washing with water to rinse out all non-chemisorbed NeutrAvidin molecules. Immobilization of ODN on the gold surface of the crystals is accomplished using avidin–biotin interactions. A 1 μM 5′-biotinylated ODN solution was injected over the neutravidin-modified surface and subsequently the crystal was washed again with water. The system was then equilibrated using Hanks buffer solution. This buffer was suitable for studying LRR11–ODN binding. Then LRR11 was used at concentrations of 1, 5, 10, 50 and 100 nM […] in Hanks buffer. After each addition of LRR11, the sensor surface was washed with Hanks buffer and LRR11 with the higher concentration was added. All binding experiments were carried out at room temperature. Buffer and sample solutions were introduced in a flow-through format. A network analyzer 8712ES (Agilent Technologies, Santa Clara, CA, USA) was used to measure the impedance properties of the sensor and determine fS and Rm."}, "[4]": {"system": "5′-biotinylated G-rich ODN", "test": "TSM acoustic biosensor, peptide binding to immobilized G-rich ODN", "settings": "URP, immobilized G-rich ODN", "description": "as §3\n(§5) Eight MHz AT-cut piezoelectric quartz crystal transducer was obtained from CH Instruments, Austin, TX, USA. The transducer was covered on both sides with thin layers of gold that served as electrodes (working area 0.2 cm^2). Prior ODNs immobilization, the crystal was carefully cleaned with basic Piranha solution (29% NH3, 30% H2O and H2O2 with volumetric 1:5:1 ratio, respectively) for 25 min. After the thorough cleaning, the crystal was positioned between two silicon O-rings in a flow-through cell. […]"}, "[5]": {"system": "NeutrAvidin", "test": "TSM acoustic biosensor, unspecific binding to NeutrAvidin in the absence of ODNs", "description": "as §3, §5"}, "[6]": {"system": "human neutrophils (PMNLs), 5-LOX product synthesis", "test": "5-LOX metabolite synthesis in human neutrophils stimulated with opsonized S. typhimurium (HPLC)", "format": "cell-based", "experimental": "Figure 1 Effects of LRR11 and ODNs on the formation of LTB4 (A,B) and the sum of 5-LOX metabolites (ω-OH-LTB4, LTB4 and its isomers, and 5-HETE) (C) in human PMNLs. PMNLs (2 × 10^7) were incubated for 15 min at 37 °C without (black bars) or with 1 μM LRR11 (A, LRR11_first); then ODNs and LRR11 or LPS were added; various ways of adding ODN and LRR11 peptide are indicated. In control samples, Hanks’ solution was added instead of ODNs. After 20 min, 0.5 × 10^9 S. typhimurium bacterial cells were added for a further 15 min. The 5-LOX products were determined using HPLC. Values indicate mean ± SEM of five independent experiments performed in duplicate. * p < 0.05, ** p < 0.01, *** p < 0.005, compared with the control. # p < 0.05, ## p < 0.01 for pairs of data compared as indicated by two-way ANOVA followed by Tukey’s multiple comparison test.\nFigure 3 Synthesis of the 5-LOX metabolites in PMNLs exposed to opsonized S. typhimurium bacteria in the presence of the RAGE antagonist FPS-ZM1. PMNLs (2 × 10^7) were incubated for 15 min at 37 °C without additives or with 0.15 µM FPS-ZM1, for the next 20 min the mixture was incubated with 1 µM ODNs without (black bars) or with 1 µM LRR11 (gray bars) before adding 5 × 10^8 S. typhimurium for 15 min. In control samples, Hanks’ solution was added instead of ODNs. The 5-LOX products were determined using HPLC. Graphical data are presented for LTB4 (A) or the sum of LTB4 and its isomers, ω-OH-LTB4 and 5-HETE, designed as Σ5LOX products (B).\nas §1, with “PMNLs were washed twice in PBS, resuspended at 10^7 cells/mL (96–97% purity, 98–99% viability) in Dulbecco’s PBS containing 1 mg/mL glucose (no CaCl2) and stored at room temperature.” left out\nBacteria (S. typhimurium IE 147 strain) obtained from the Collection of Gamaleya National Research Center of Epidemiology and Microbiology (Moscow, Russia) were grown in Luria–Bertani broth to a concentration of 1 × 10^9 colony-forming units (CFU)/mL. The bacteria were collected by centrifugation at 2000 g and opsonized immediately before the experiment for 30 min in 20% (v/v) fresh serum from the same donor whose blood was used to isolate neutrophils. Repeated centrifugation in Dulbecco’s solution was used to wash the bacteria.\nThe cell suspension (2 × 10^7 PMNLs in HBSS/HEPES, reaction volume of 6 mL) was cultured for 15 min in an incubator at 37 °C, 5% CO2. Then 1.0 µM ODN with or without 1.0 µM LRR11, or 2 µg/mL LPS, was added as indicated. After 20 min, the cells were stimulated with S. typhimurium (the ratio of bacteria to PMNLs was approximately 20:1) for the next 15 min [3]. The synthesis of 5-LOX metabolites was stopped by adding an equal volume of methanol at −20 °C with prostaglandin B2 as an internal standard. Samples were stored at −20 °C. The denatured cell suspension was centrifuged, and supernatants designated as water/methanol extracts.\nas §2\nTable S1. Effect of Chloroquine on 5-LOX product formation in PMNLs after ODN priming followed by the addition\nof opsonized S. typhimurium bacteria."}},
  "note": "Oligonucleotides are written 5' to 3', each unit as a sugar letter and its base; * is a phosphorothioate linkage, no mark a phosphodiester; rarer units and linkages stand in square brackets, end groups in braces. Plain capitals give the bases only. d = 2'-deoxy (DNA)",
  "data": [
    {"molecule": "CNc1ccc2oc(C[C@H]3O[C@@]4(CC[C@H]3C)O[C@H]([C@H](C)C(=O)c3ccc[nH]3)[C@H](C)C[C@H]4C)nc2c1C(=O)O", "note": "[A23187]", "values": [
      {"measurement": "Σ 5-LOX metabolites", "setting": "[1]", "result": "416 ± 37", "unit": "ng/10^7 PMNLs"}
    ]},
    {"molecule": "LQTLDLRDNALTTIHFIPSIPD [URP, unrelated peptide with a random primary structure, negative control, reference compound]", "values": [
      {"measurement": "frequency reduction by URP", "setting": "[2]", "result": "no frequency reduction was occurred even after the addition of 100 nM URP"},
      {"measurement": "interaction of URP with ODN", "setting": "[3]", "result": "absence of interactions between the URP and ODNs"},
      {"measurement": "interaction of URP with ODN", "setting": "[4]", "result": "absence of interactions between the URP and ODNs"},
      {"measurement": "unspecific binding to NeutrAvidin", "setting": "[5]", "result": "no unspecific biding"}
    ]},
    {"molecule": "5′- ggGGACGACGTCGTGgggggg-3′ (DNA dG*dG*dGdGdAdCdGdAdCdGdTdCdGdTdGdG*dG*dG*dG*dG*dG) [A-CpG]", "values": [
      {"measurement": "effect on 5-LOX activity / leukotriene synthesis", "setting": "[6]; ODN alone, 1 µM, 20 min, then opsonized S. typhimurium 15 min, Figure 1, five independent experiments in duplicate", "result": "did not significantly affect 5-LOX activity"},
      {"measurement": "Σ 5-LOX metabolites", "setting": "[6]; Table S1, 2×10^7 PMNLs, 15 min at 37 °C without or with 5 µM Chloroquine, then ODN, after 20 min 0.5×10^9 opsonized S. typhimurium for 15 min, mean ± SEM, three independent experiments", "result": "18.4 ± 2.1", "unit": "ng/107 PMNLs"}
    ]}
  ]
}
